# Counter-ions that a name gives are not always drawn. Like-named read-outs stand apart in the source and are kept apart here.
# Key:
# [1] = tested on: amyloid plaques in PSAPP mice; assay: Postmortem immunohistochemistry of plaque load in cortex and hippocampus; type: in vivo, mouse; conditions: for decrease in plaque load, cortex / decrease in plaque load, hippocampus: acute i.c.v.
# Source text: (§1) Heterozygous mutant (K670N/M671L) APP (50% C57B6, 50% SJL) transgenic mice were crossed with heterozygous mutant (A246E) PS-1 (50% C57B6, 50% SJL) transgenic mice to generate heterozygous PSAPP transgenic mice (also referred to as PS-1/APP or PSAPP+/+ mice), which refers to animals heterozygous for the PS-1 A246E transgene and the APP K670N/M671L transgene. Non-transgenic control animals were littermates (also referred to as PSAPP_−/− mice) generated in the breeding for PSAPP transgenic animals. Mouse genotype was determined by Polymerase Chain Reaction (PCR). Both male and female mice of 6-7 months old were used for the experiments below. All animal experiments were performed in accordance with the Tufts Animal Care and Use Committee and with national regulations and policies.
# Mice were perfused transcardially with 4% paraformaldehyde and 40 μm Coronal sections were collected. Sections were sequentially incubated in 0.3% H2O2 for 10 minutes, blocking solution for 2 hrs, blocking solution containing the primary antibody (rabbit anti-beta1-42; rabbit anti-beta1-40, from Chemicon International and rat anti-CD45) for 48 hours at 4° C., and blocking solution containing biotinylated antibody or fluorescently-labeled antibody for 2 hours at room temperature. Sections were visualized in a bright field microscope or a confocal microscope, and the optical density was obtained using MetaMorph software.
# After repeated imaging, brains were fixed and subjected to postmortem immunohistochemistry with amyloid beta specific antibodies β1-40 and β1-42 to evaluate the plaque load (area occupied by immunostaining of plaque) in cortex and hippocampus.
# PSB0474 was systemically administered to PSAPP mice via intraperitoneal injection for 2, 4 and 6 consecutive days. In one group, prior to evaluation and following to administration for 6 consecutive days, treatment was suspended for two weeks (6+2 weeks group). Brains were then fixed and plaque load was evaluated by immunostaining with the amyloid beta specific antibodies: β1-40 and β1-42. Representative images of plaque load in cortex and hippocampus from animals that received injections of PSB0474 according to the foregoing injection schedules are shown in FIG. 5(A)-(D). […] Whereas, when administration of PSB0474 was stopped for 2 weeks following six consecutive days of treatment (denoted as the 6+2 weeks group), β1-40 staining rebounded; although to a level lower than observed in mice treated with saline as a vehicle control. FIGS. 6A and 6B depict the reduction in plaque load (%) the cortex and hippocampus, respectively, in PSAPP mice after treatment with 3-phenacyl-UDP for 2, 4, or 6 consecutive days, as assayed by staining with the β1-40 antibody. FIGS. 6C-6F depict data obtained following administration of different dosages of PSB0474.
# To generate these graphs showing plaque load, mice were euthanized, brain sections cut and antibodies directed against Aβ 42 were used to disclose Aβ plaques. Images were acquired digitally and an algorithm was applied to threshold the image so that plaques were isolated from the background. The algorithm then calculated the percent area of the field of view occupied by the plaques.
# PSAPP mice [2] = assay: Contextual fear conditioning test; type: in vivo, mouse
# Source text: as §1
# On day one, animals were trained in a fear conditioning apparatus for a total of 7 minutes with a two-pairing paradigm of cue and mild foot shock (a 30-s acoustic-conditioned stimulus, 80 dB; a 2-s shock stimulus, 0.5 mA). To evaluate contextual fear learning, the animals were returned to the training context 24 hours post-training, and freezing behavior was scored for 5 minutes. Freezing behavior was monitored by MotorMonitor (Hamilton Kinder) and scored every 5 seconds.
# In this study, the fear conditioning associative learning paradigm was used as a rapid cognition assay for PSAPP mice. This study allowed us to probe cognitive function with a single training day followed in 24 hours by tests for contextual and cued fear learning. Contextual fear learning is dependent upon a brain area that has been implicated as a locus for cognitive decline in AD: the hippocampus. Two pairings of CS-US for fear conditioning were followed 24 hours later by testing for contextual and cued fear learning. Previous studies have reported that PSAPP animals appear to have a selective hippocampus-dependent impairment in associative learning following two pairings of conditioned stimuli for fear conditioning.
# This represents a decrease in the cognitive impairment observed in the untreated mice.
# PSAPP mice [3] = assay: Tolerability of increased dose in PSAPP mice; type: in vivo, mouse; conditions: 1000× increase in dose
# P2Y6 receptor [4] = target: T1, P2Y6 receptor (Homo sapiens, UniProt Q15077); conditions: cited from earlier work
# plasma cytokines = assay: Plasma cytokine levels after 7 daily i.p. injections; type: in vivo, mouse; conditions: 1 μg/kg i.p., 7 days
# Procedure: Inflammatory cytokines were assessed in mouse plasma of both wild type and PS1/APP mice (Alzheimer's mouse model) and the impact of intraperitoneal delivery of compound 5 on circulating cytokines was assessed. Seven daily intraperitoneal injections of 1 μg/kg of compound 5 were delivered to mice. 24 hours following the final injection, plasma was collected. Wildtype, age matched littermates and PSAPP mice (>6 months of age) were treated either with vehicle (phosphate buffered saline) or vehicle containing compound.
# [5] = tested on: amyloid plaques in PSAPP mice; assay: Two-photon in vivo imaging of methoxyX04-labeled amyloid plaques in barrel cortex; design: species or system mouse; conditions: acute i.c.v. injection
# Source text: as §1
# In this study, PSAPP mice were anesthetized using isoflurane and a thin-skull preparation was used to minimize the surface damage. Amyloid plaques were visualized with methoxyX04 labeling and blood plasma was labeled with Rhodamine dextran to facilitate re-localization of the same imaging area. Stack images were obtained using a two-photon system (Prairie Technologies) with excitation at 850 nm. The emission was detected by external photomultiplier tubes (525/70; DLCP 575; 607/45 nm).
# Animals were anesthetized and immobilized in a stereotaxic frame. For each injection, 1 μl of 10 mM UDP or other suitable compounds in artificial cerebrospinalfluid (ACSF) as the vehicle were injected intraventricularly using the following coordinates: AP 0.2 mm, ML 1 mm, and DV 2.2 mm.
# To evaluate the effect of UDP on plaque burden, two-photon microscopy was used to assess the amyloid plaques in the barrel cortex in living PSAPP mice. Amyloid plaques were stained by systemically administered methoxy-X04. One day prior to imaging, PSAPP mice were injected with methoxyX04 to label the amyloid plaques. On the imaging day, to facilitate the re-location of the same imaging area, blood plasma was labeled with Rhodamine dextran. Images were obtained from the same start- and end-point to ensure the same image volume. […]
# PSAPP mice [6] = assay: Hippocampal long-term potentiation (LTP) recording; type: in vivo, mouse; conditions: acute treatment, HFS
# Procedure: Hippocampal slices (350 μm thick) were prepared from 6-month-old PSAPP mice. Baseline responses were obtained every 10 seconds and Input-output (I/O) curves, paired-pulse modification and LTP were successively measured. The stimulation intensity was set to a level that gives a value of 30% of the maximum obtained. LTP were induced by high frequency stimulation (HFS, 100 pulses at 100 Hz, four times) or by theta-burst stimulation (TBS, 10 bursts at 5 Hz, repeated 10 times in 15 s intervals).
# Accumulated evidence has shown that amyloid peptides naturally secreted or isolated from Alzheimer's brains impair synaptic plasticity, especially hippocampal long-term potentiation (Walsh et al., 2002). Therefore, we further performed LTP recordings in PASPP mice and investigated whether P2Y6 receptor-mediated plaque clearance affects synaptic plasticity. […] First, it was observed that LTP at the schaffer collateral synapse within the CA1 region was depressed in PSAPP mice, as compared with littermates (FIG. 8(A)).
# P2Y2 receptor = target: T2, P2Y2 receptor (Homo sapiens, UniProt P41231); assay: Ca2+ mobilization with fluo-4 in 1321N1 astrocytoma cells expressing P2Y2; type: cell-based; conditions: 1321N1 cells expressing P2Y2
# T2 construct: expressed in transfected cells; host or cells: 1321N1 human astrocytoma cells
# Procedure: (§2) Synthetic ligands were tested for activation of P2Y6 receptor by measuring receptor induced Ca^2+ changes with the fluorescent Ca^2+ indicator fluo-4. 1321N1 human astrocytoma cell lines either expressing P2Y2, P2Y4 or P2Y6 receptors were plated into 24-well plates. Two days after plating, fluorometric measurements were made and responses of cells to a serial dilution of ligands were determined. P2Y6 receptor-mediated Ca^2+ fluorescent change was determined by normalized accumulation of fluorescent change of 3 timepoints after ligand administration subtracted by value from ACSF control. Changes in fluorescent intensity were plotted corresponding to ligand concentration in GraphPad. Dose-response curve and EC50 for each ligand was estimated using nonlinear curve fit and Sigmoidal dose-response analysis. […]
# (§3) Synthetic ligands were tested for activation of P2Y6 receptor by measuring receptor induced Ca^2+ changes with the fluorescent Ca^2+ indicator fluo-4, and results are shown in FIG. 10(A)-(K). […] Two days after plating, fluorometric measurements were made and responses of cells to a serial dilution of ligands were determined. P2Y6 receptor-mediated Ca^2+ fluorescent change was determined by normalized accumulation of fluorescent change of 3 timepoints after ligand administration subtracted by value from ACSF control. […]
# P2Y4 receptor = target: T3, P2Y4 receptor (Homo sapiens, UniProt P51582); assay: Ca2+ mobilization with fluo-4 in 1321N1 astrocytoma cells expressing P2Y4; type: cell-based; conditions: 1321N1 cells expressing P2Y4
# T3 construct: expressed in transfected cells; host or cells: 1321N1 human astrocytoma cells
# Procedure: as §2, §3
# P2Y6 receptor [7] = target: T1, P2Y6 receptor; assay: Activation of P2Y6 receptor: Ca2+ changes with fluo-4 in 1321N1 astrocytoma cells expressing P2Y6; type: cell-based; design: expressed in transfected cells; host or cells: 1321N1 human astrocytoma cells
# Procedure: Synthetic ligands were tested for activation of P2Y6 receptor by measuring receptor induced Ca^2+ changes with the fluorescent Ca^2+ indicator fluo-4. 1321N1 human astrocytoma cell lines either expressing P2Y2, P2Y4 or P2Y6 receptors were plated into 24-well plates. Two days after plating, fluorometric measurements were made and responses of cells to a serial dilution of ligands were determined. P2Y6 receptor-mediated Ca^2+ fluorescent change was determined by normalized accumulation of fluorescent change of 3 timepoints after ligand administration subtracted by value from ACSF control. Changes in fluorescent intensity were plotted corresponding to ligand concentration in GraphPad. Dose-response curve and EC50 for each ligand was estimated using nonlinear curve fit and Sigmoidal dose-response analysis. […] The sodium salt of compound 5 was only effective at elevating Ca^2+ levels when applied to cells expressing P2Y6 receptors and not effective in P2Y2, or P2Y4 receptor expressing cells. The ability of the sodium salt of compound 5 to elevate Ca^2+ signals in P2Y6 expressing cells was attenuated by addition of the P2Y6 receptor antagonist MRS2578.
# as §2, with “fluo-4, and results are shown in FIG. 10(A)-(K).” for “fluo-4.”
# [8] = β1-42 antibody, vs vehicle control
# [9] = i.p. daily for 7 consecutive days
# T1 sequence (Q15077 whole entry): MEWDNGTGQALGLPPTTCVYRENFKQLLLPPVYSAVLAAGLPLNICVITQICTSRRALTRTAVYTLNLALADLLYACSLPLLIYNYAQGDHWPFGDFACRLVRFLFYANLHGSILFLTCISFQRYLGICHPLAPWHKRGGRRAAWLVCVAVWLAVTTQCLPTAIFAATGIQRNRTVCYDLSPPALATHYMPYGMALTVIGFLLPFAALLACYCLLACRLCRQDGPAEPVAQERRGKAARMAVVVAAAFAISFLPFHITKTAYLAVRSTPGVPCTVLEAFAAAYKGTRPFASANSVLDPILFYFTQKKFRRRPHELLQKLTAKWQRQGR
# T3 sequence (P51582 whole entry): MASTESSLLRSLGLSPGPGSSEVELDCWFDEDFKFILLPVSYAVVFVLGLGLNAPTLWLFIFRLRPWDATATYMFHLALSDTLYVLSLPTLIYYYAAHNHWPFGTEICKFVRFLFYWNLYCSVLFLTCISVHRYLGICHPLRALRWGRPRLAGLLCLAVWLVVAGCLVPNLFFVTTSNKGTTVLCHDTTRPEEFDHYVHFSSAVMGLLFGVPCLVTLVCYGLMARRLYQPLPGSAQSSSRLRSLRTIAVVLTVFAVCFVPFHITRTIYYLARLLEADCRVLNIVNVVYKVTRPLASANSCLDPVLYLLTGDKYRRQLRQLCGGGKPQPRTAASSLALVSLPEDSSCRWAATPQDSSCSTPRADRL
# T2 sequence (P41231 whole entry): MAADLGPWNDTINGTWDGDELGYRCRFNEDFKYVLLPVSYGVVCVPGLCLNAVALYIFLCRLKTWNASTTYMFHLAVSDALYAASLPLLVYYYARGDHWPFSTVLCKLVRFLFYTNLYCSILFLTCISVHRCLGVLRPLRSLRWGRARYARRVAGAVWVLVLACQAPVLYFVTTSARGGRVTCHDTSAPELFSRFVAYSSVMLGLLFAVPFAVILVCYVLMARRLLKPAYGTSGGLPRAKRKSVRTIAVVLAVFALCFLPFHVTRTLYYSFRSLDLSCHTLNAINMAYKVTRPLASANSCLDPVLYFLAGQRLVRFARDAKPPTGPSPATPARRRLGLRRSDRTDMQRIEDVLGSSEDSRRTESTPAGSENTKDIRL
smiles,measurement,setting,value
O=C(Cn1c(=O)ccn(C2OC(COP(=O)(O)OP(=O)(O)O)C(O)C2O)c1=O)c1ccccc1 (centres unmarked) [3-phenacyl-UDP],effects on the efficacy endpoint at the higher dose,[1]; 1 mg/kg,smaller effects
same,β1-40 staining after stopping administration,"[1]; 6 consecutive days i.p., then stopped for 2 weeks",rebounded
same,immunoreactivity of β1-40 in cortex and hippocampus,[1]; i.p. for 4 and 6 consecutive days,significantly decreased
same,total freezing percentage in context test,"PSAPP mice [2]; chronic injection, two doses",increased
same,memory deficit in contextual fear conditioning test,PSAPP mice [2]; one week treatment with 1 μg/kg,rescued the memory deficit
same,detrimental effects to the animal,PSAPP mice [3],did not cause detrimental effects
same,selectivity for P2Y6 receptor,P2Y6 receptor [4],> 500 fold
same,EC50,"P2Y6 receptor [4]; read-out: EC50, P2Y6 receptor agonist",70 nM
O=c1ccn([C@@H]2O[C@H](COP(=O)(O)OP(=O)(O)O)[C@H](O)C2O)c(=O)n1Cc1noc2ccccc12 (some centres unmarked) [Compound 5],Aβ plaque load (%) in the cortex,[1]; [8],substantial decrease
same,Aβ plaque load (%) in the hippocampus,[1]; [8],substantial decrease
same,freezing behavior relative to wildtype animals,PSAPP mice [2]; [9],restored to a level equivalent to that observed in wildtype animals
same,total freezing percentage in the context test,PSAPP mice [2]; [9],increased
same,plasma level of IL-2,plasma cytokines; PSAPP mice,reduced
same,plasma level of IL-7,plasma cytokines; PSAPP mice,reduced
same,plasma level of IL-9,plasma cytokines; PSAPP mice,reduced
same,plasma level of IL-10,plasma cytokines; PSAPP mice,reduced
same,plasma level of IL-15,plasma cytokines; PSAPP mice,reduced
same,plasma level of Il-1β,plasma cytokines; PSAPP mice,reduced
same,plasma level of MIG,plasma cytokines; PSAPP mice,reduced
same,plasma level of MIP1α,plasma cytokines; PSAPP mice,reduced
same,plasma level of IL-2,plasma cytokines; wildtype animals,reduced
same,plasma level of IL-10,plasma cytokines; wildtype animals,reduced
"O=c1ccn([C@@H]2O[C@H](COP(=O)(O)OP(=O)(O)O)[C@@H](O)[C@H]2O)c(=O)[nH]1 [UDP, uridine diphosphate]",reduction in plaque load,"[5]; day 4 vs day 1, barrel cortex",17.2%
same,reduction in the number of plaques,"[5]; day 4 vs day 1, barrel cortex",12.6%
same,reduction in cross-sectional area of individual identified plaques,[5]; second imaging session,18.2%
same,"decrease in plaque load, cortex",[1]; β1-40 antibody,60%
same,"decrease in plaque load, hippocampus",[1]; β1-40 antibody,62%
same,"decrease in plaque load, cortex",[1]; β1-42 antibody,48%
same,"decrease in plaque load, hippocampus",[1]; β1-42 antibody,47%
same,freezing behavior during the first 4 minutes,"PSAPP mice [2]; acute i.c.v., 5 minute testing time",increased
same,total freezing percentage,"PSAPP mice [2]; acute i.c.v., contextual test",49%±5%
same,LTP deficit at CA1,PSAPP mice [6],reversed this LTP deficit
same,"field excitatory postsynaptic potential (fEPSP), last 15 min potentiation",PSAPP mice [6],significant increase
O=c1ccn(C2OC(COP(=O)(O)OP(=O)(O)O)[C@H](O)C2O)c(=O)n1Cc1noc2ccccc12 (some centres unmarked) [sodium salt of compound 5],elevating Ca2+ levels in P2Y2 receptor expressing cells,P2Y2 receptor,not effective
same,elevating Ca2+ levels in P2Y4 receptor expressing cells,P2Y4 receptor,not effective
same,elevating Ca2+ levels in cells expressing P2Y6 receptors,P2Y6 receptor [7]; 1321N1 cells expressing P2Y6,effective
same,EC50,"P2Y6 receptor [7]; 1321N1 cells expressing P2Y6, fluo-4 Ca2+",12 nM
same,ability to elevate Ca2+ signals on addition of P2Y6 receptor antagonist MRS2578,"P2Y6 receptor [7]; P2Y6 expressing cells, plus MRS2578",attenuated
